Source: US8481587B2, “Substituted 2-(5-hydroxy-2-methyl-1H-indole-3-yl)acetic acids and ethers thereof and the use of same to treat viral diseases” (priority 2008, dated 2013)
Converted amounts (≈) assume the structure as drawn. Structures can show the parent of a compound that is named as a salt. Where two headings read alike, the source gives them in different places.

Tests used:
[1] = system: influenza A/New Caledonia/20/99 (H1N1) viruses; assay: microbe, parasite or virus in culture; assay type: cell-based
[2] = system: hepatisis C viruses (HCV) strain JFH-1; assay: Antiviral activity towards HCV in infected Huh7 cells (core-antigen ELISA); assay type: cell-based, HCV strain JFH-1 in human hepatoma (Huh7) cells; settings: Hepatitis C virus, Huh-7; HCV strain JFH-1, Huh7 cells
Description: Determination of antiviral activity of the compounds of the general formula 1 towards hepatisis C viruses. Determination of antiviral activity of the compounds of the general formula 1 towards hepatisis C viruses (HCV) strain JFH-1 in cell culture of human hepatoma (Huh7) infected with HCV.
Cells Huh7 were embedded in 96-well plates (7.5×10^3 cells in every well in 50 μl of nutrient solution). 5×-concentrated solutions of the tested compounds in DMEM medium {DMEM) 1×; the source: Cellgro; Catalogue: 10-013-CV} were prepared just before the usage. In total, four serial fivefold dilutions with concentration ranging from 250 μM to 2 μM were prepared. In 4 hours after cell embedding serial dilutions of the compounds were added to the cells (50 mkl per one well). Each dilution of the examined compound was tested for two identical wells. The final DMSO concentration amounted up to 0.5%. Then, the cells were incubated for 3 hours at 37° C./5% CO2. After the incubation virus (300 tissue culture infective doses in 30 μl per one well) was added to the cells. […]. Then the cells were incubated for 3 hours at 37° C./5% CO2. The cells were fixed by addition acetone/methanol (1:1) mixture in amount of 250 gμl/well. In one minute the cells were washed with Phosphate Buffered Saline (PBS) three times. After that the cells were quenched by addition of 10% solution of fetal calf serum in PBS (150 μl/well) and kept for one hour at room temperature. Then the cells were incubated with mouse monoclonal antibody (100 μl/well) to cor-antigen HCV, clone C7-50 (Source: Affinity BioReagents; Catalogue: MA1-080) (working dilution—1:500 in 10% solution of fetal calf serum in PBS) for two hours at 37° C. The cells were washed 6 times with PBS/0.05% Tween 20 solution and incubated for one hour with peroxidase conjugated goat anti-mouse immunoglobulin (100 μl/well) (working dilution—1:2500 in 10% solution of fetal calf serum in PBS). The cells were washed 6 times with PBS/0.05% Tween 20 solution, then with PBS solution, and 100 μl/well of the substrate (consisting of 1 tablet of oPD, 12 ml of citrate/phosphate buffer and 5 μl of 30% H2O2) were added. The plates were kept for 30 min in darkness at room temperature. The reaction was stopped by addition of 2N […] (100 μl/well), optical density (at 490 nm) was measured with the help of multichannel spectrophotometer Victor3 V 1420 (Perkin Elmer). IC50 values for every tested compound were calculated using XLfit 4 programm.

cellular line MDCK = settings: cited from earlier work
influenza virus = settings: cellular line MDCK, cited from earlier work
[3] = system: some other cellular lines; settings: cited from earlier work
[4] = influenza A/New Caledonia/20/99 (H1N1), MDCK cells, ELISA, read-out: IC50

Row | Structure (SMILES) | IC50 [2] | IC50 [1, 4] | also measured
1 | COC(=O)C(CCN(C)C)c1c(C)n(C)c2cc(C(F)(F)F)c(OC)cc12 (centres unmarked) [1p(2)•HCl, methyl 2-(1,2-dimethyl-5-methoxy-6-(trifluoromethyl)-1H-indol-3-yl)-4-dimethylaminobutyrate] |  |  | IC50 ([1]; H1N1, MDCK): 12 µg/mL
2 | COC(=O)Cc1c(C)[nH]c2ccc(OC)c(F)c12 [1.1(1), methyl 2-(2-methyl-5-methoxy-4-fluoro-1H-indol-3-yl)acetate] | 38 µM |  | 
3 | Cc1c(CC(=O)O)c2cc(O)c(F)cc2n1C [1u(6), 2-(5-hydroxy-1,2-dimethyl-6-fluoro-1H-indol-3-yl)acetic acid] |  | > 15 µg/mL | 
4 | CN(C)Cc1c(CC(=O)O)c2cc(O)c(-c3cccnc3)cc2n1C [1t(5), 2-(5-hydroxy-2-(dimethylamino)methyl-1-methyl-6-(pyridin-3-yl)-1H-indol-3-yl)acetic acid] |  | > 15 µg/mL | 
5 | COC(=O)Cc1c(C)[nH]c2cc(C(F)(F)F)c(OC)cc12 [1.4(1), methyl 2-(2-methyl-5-methoxy-6-(trifluoromethyl)-1H-indol-3-yl)acetate] | 1.7 µM | > 15 µg/mL | 
6 | COC(=O)Cc1c(C)[nH]c2cc(F)c(OC)cc12 [1.2(1), methyl 2-(2-methyl-5-methoxy-6-fluoro-1H-indol-3-yl)acetate] | 13 µM |  | 
7 | COC(=O)Cc1c(C)n(C(=O)c2ccc(Cl)cc2)c2ccc(OC)c(F)c12 [1e(1), methyl 2-[2-methyl-5-methoxy-4-fluoro-1-(4-chlorobenzoyl)-1H-indol-3-yl]acetate] | 39 µM |  | 
8 | COc1ccc2c(c1F)c(CC(=O)O)c(CN(C)C)n2C [1i(13), 2-(2-(dimethylamino)methyl-1-methyl-5-methoxy-4-fluoro-1H-indol-3-yl)acetic acid] |  | 12 µg/mL (≈ 40.8 µM) | 
9 | COC(=O)Cc1c(C)n(C)c2cc(C(F)(F)F)c(OC)cc12 [1g(4), methyl 2-(1,2-dimethyl-5-methoxy-6-(trifluoromethyl)-1H-indol-3-yl)acetate] | 2.4 µM |  | 
10 | COC(=O)Cc1c(C)n(C)c2cc(F)c(OC)cc12 [1g(2), methyl 2-(1,2-dimethyl-5-methoxy-6-fluoro-1H-indol-3-yl)acetate] | 6.3 µM | 10 µg/mL (≈ 37.7 µM) | 
11 | CCOC(=O)c1c(CSc2ccccc2)n(C)c2cc(Br)c(O)c(CN(C)C)c12.Cl [Arbidol, ethyl 6-bromo-4-[(dimethylamino)methyl]-5-hydroxy-1-methyl-2-(phenylthiomethyl)-1H-indole-3-carboxylate hydrochloride] |  |  | TC50 (cellular line MDCK): 62.5 µg/mL; selectivity index (SI50) (influenza virus; for influenza virus): 2.69; IC50 (influenza virus; influenza virus): 23.2 mkg/ml; CC50 [3]: 15 to 25 µg/mL
12 | COC(=O)Cc1c(C)n(C)c2cc(F)c(O)cc12 [1v(1), methyl 2-(5-hydroxy-1,2-dimethyl-6-fluoro-1H-indol-3-yl)acetate] | 50 µM |  | 
